# Measurements from the kinase profiling compilation of Christmann-Franck et al. (2016).
# “And” between values parts separate entries of the source, which are not always exact repeats. Equal entries are not always repeated.
# Tests used:
# Assay in all cases: radiometric filter-binding kinase assay, Kinase HotSpot
# Details in all cases: compound 0.5 µM; ATP 10 µM
# MAPK13 (human) = MAPK13 (human) (UniProt O15264)
# PBK (human) = PBK (human) (UniProt Q96KB5)
# AXL (human) = AXL (human) (UniProt P30530)
# DYRK4 (human) = DYRK4 (human) (UniProt Q9NR20)
# MAP2K2 (human) = MAP2K2 (human) (UniProt P36507)
# PAK7 (human) = PAK7 (human) (UniProt Q9P286)
# CSF1R (human) = CSF1R (human) (UniProt P07333)
# PIM3 (human) = PIM3 (human) (UniProt Q86V86)
# ADRBK2 (human) = ADRBK2 (human) (UniProt P35626)
# CDK1 CCNB1 (human) = CDK1 CCNB1 (human) (UniProt P06493+P14635)
# LRRK2 (human) = LRRK2 (human) (UniProt Q5S007)
# YES1 (human) = YES1 (human) (UniProt P07947)
# EPHB2 (human) = EPHB2 (human) (UniProt P29323)
# EPHA4 (human) = EPHA4 (human) (UniProt P54764)
# BMX (human) = BMX (human) (UniProt P51813)
# PHKG2 (human) = PHKG2 (human) (UniProt P15735)
# MARK3 (human) = MARK3 (human) (UniProt P27448)
# GSG2 (human) = GSG2 (human) (UniProt Q8TF76)
# NLK (human) = NLK (human) (UniProt Q9UBE8)
# RPS6KA5 KD2 (human) = RPS6KA5 KD2 (human) (UniProt O75582)
# DAPK3 (human) = DAPK3 (human) (UniProt O43293)
# BRSK1 (human) = BRSK1 (human) (UniProt Q8TDC3)
# LYN (human) = LYN (human) (UniProt P07948)
# MAP2K1 (human) = MAP2K1 (human) (UniProt Q02750)
# CDK5 CDK5R1 p25 (human) = CDK5 CDK5R1 p25 (human) (UniProt Q00535+Q15078)
# PRKD3 (human) = PRKD3 (human) (UniProt O94806)
# RPS6KA3 KD1 KD2 (human) = RPS6KA3 KD1 KD2 (human) (UniProt P51812)
# AKT3 (human) = AKT3 (human) (UniProt Q9Y243)
# CAMKK1 (human) = CAMKK1 (human) (UniProt Q8N5S9)
# MYLK2 (human) = MYLK2 (human) (UniProt Q9H1R3)
# INSR (human) = INSR (human) (UniProt P06213)
# DMPK (human) = DMPK (human) (UniProt Q09013)
# ULK2 (human) = ULK2 (human) (UniProt Q8IYT8)
# MAP3K9 (human) = MAP3K9 (human) (UniProt P80192)
# STK24 (human) = STK24 (human) (UniProt Q9Y6E0)
# EPHB1 (human) = EPHB1 (human) (UniProt P54762)
# FLT3 (human) = FLT3 (human) (UniProt P36888)
# PRKD1 (human) = PRKD1 (human) (UniProt Q15139)
# ACVR1B (human) = ACVR1B (human) (UniProt P36896)
# LIMK1 (human) = LIMK1 (human) (UniProt P53667)
# LCK (human) = LCK (human) (UniProt P06239)
# MAPKAPK3 (human) = MAPKAPK3 (human) (UniProt Q16644)
# LYN (human), sequence (P07948 whole entry, looked up): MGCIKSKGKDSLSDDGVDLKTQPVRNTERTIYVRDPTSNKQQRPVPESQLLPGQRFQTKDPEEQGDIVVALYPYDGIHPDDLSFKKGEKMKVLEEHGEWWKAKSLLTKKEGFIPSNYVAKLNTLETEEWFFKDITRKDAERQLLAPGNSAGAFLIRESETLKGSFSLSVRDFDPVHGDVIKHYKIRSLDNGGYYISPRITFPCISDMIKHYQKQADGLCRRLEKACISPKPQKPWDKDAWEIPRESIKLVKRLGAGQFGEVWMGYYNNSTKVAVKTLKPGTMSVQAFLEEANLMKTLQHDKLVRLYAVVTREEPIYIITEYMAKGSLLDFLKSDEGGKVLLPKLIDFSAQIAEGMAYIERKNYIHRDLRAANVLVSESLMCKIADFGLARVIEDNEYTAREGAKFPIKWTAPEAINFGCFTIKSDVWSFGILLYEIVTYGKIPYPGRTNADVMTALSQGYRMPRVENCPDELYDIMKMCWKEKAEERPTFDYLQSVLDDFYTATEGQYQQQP
# MARK3 (human), sequence (P27448 whole entry, looked up): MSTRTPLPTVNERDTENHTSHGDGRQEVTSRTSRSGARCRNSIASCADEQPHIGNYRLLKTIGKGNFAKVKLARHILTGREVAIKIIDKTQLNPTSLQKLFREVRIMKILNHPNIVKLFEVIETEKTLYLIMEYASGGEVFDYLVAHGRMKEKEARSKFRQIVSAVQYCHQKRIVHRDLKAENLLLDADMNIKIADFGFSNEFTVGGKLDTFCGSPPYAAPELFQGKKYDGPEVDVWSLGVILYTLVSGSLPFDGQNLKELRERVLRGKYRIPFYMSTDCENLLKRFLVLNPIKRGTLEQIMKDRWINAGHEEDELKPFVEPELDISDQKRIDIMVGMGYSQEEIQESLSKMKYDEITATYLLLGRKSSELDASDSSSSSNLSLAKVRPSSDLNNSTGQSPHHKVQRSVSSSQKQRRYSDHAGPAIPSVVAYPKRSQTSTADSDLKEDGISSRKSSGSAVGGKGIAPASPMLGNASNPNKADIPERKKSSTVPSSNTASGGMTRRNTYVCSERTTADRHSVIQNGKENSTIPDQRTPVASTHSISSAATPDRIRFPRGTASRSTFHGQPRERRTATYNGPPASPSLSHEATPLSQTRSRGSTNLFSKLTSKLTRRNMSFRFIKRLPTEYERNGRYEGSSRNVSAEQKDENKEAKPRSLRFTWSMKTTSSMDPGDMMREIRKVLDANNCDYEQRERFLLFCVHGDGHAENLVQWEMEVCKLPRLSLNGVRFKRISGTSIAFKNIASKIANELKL
# BRSK1 (human), sequence (Q8TDC3 whole entry, looked up): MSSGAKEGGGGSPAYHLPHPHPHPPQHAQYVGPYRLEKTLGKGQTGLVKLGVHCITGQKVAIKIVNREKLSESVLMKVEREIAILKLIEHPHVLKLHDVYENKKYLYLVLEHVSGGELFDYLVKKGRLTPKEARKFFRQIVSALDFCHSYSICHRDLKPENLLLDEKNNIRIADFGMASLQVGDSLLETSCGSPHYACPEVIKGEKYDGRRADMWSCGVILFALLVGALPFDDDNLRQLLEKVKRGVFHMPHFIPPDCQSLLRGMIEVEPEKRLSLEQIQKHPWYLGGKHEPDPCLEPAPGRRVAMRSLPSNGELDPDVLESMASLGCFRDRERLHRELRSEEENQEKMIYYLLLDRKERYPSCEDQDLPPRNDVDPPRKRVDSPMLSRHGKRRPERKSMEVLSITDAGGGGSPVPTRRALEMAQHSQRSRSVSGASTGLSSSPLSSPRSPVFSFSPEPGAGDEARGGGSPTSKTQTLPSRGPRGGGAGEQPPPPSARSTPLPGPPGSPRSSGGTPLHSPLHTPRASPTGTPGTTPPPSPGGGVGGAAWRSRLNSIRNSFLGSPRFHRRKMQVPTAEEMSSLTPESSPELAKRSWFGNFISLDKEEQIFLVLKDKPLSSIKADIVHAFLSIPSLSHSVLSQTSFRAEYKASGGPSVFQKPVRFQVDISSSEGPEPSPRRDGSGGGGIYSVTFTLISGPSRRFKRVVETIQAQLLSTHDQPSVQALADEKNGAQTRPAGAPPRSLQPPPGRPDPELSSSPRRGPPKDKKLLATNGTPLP
# MAP2K2 (human), sequence (P36507 whole entry, looked up): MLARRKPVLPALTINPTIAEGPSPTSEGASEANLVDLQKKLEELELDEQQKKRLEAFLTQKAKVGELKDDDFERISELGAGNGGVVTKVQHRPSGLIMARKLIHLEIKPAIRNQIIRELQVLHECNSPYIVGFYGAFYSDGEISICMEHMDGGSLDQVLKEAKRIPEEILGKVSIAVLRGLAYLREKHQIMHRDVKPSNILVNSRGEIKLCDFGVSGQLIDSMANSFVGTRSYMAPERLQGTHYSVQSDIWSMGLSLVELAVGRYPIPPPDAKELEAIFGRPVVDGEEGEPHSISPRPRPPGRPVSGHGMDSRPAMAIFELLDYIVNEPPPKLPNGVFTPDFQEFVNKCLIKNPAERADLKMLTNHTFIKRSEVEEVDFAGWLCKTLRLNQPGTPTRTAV
# DYRK4 (human), sequence (Q9NR20 whole entry, looked up): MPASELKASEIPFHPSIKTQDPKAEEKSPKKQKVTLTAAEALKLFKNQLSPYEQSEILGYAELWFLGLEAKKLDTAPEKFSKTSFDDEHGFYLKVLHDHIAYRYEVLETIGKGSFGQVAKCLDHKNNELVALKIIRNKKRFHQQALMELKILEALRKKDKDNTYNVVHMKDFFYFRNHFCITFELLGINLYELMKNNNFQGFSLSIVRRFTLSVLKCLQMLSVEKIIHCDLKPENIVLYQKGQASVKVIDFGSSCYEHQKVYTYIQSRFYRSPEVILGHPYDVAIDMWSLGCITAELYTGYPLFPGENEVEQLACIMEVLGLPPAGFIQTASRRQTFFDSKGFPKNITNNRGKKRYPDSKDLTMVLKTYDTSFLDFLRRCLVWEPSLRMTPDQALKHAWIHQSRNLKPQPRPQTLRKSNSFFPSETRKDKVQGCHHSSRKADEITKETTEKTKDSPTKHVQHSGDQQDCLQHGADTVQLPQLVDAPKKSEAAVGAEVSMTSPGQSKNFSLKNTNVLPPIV
# RPS6KA3 KD1 KD2 (human), sequence (P51812 whole entry, looked up): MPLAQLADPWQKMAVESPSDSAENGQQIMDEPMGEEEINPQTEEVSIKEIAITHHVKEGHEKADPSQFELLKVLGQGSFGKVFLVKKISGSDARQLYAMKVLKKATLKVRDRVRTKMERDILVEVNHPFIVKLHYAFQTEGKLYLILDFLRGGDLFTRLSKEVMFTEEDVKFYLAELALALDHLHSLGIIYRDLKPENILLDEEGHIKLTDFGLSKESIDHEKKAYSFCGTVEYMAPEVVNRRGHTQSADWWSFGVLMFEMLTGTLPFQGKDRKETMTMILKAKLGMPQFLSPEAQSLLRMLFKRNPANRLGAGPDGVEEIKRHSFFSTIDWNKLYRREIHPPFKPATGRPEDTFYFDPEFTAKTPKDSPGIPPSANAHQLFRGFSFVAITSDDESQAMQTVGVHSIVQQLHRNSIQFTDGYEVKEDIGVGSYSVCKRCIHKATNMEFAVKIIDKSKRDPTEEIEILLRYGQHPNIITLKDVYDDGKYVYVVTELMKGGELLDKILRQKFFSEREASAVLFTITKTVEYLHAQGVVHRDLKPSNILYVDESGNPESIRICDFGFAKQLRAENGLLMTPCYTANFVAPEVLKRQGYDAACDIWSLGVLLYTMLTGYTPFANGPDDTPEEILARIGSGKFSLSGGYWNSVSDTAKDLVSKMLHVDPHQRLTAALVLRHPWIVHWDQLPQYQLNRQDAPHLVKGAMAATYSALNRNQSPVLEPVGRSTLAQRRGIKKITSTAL
# LIMK1 (human), sequence (P53667 whole entry, looked up): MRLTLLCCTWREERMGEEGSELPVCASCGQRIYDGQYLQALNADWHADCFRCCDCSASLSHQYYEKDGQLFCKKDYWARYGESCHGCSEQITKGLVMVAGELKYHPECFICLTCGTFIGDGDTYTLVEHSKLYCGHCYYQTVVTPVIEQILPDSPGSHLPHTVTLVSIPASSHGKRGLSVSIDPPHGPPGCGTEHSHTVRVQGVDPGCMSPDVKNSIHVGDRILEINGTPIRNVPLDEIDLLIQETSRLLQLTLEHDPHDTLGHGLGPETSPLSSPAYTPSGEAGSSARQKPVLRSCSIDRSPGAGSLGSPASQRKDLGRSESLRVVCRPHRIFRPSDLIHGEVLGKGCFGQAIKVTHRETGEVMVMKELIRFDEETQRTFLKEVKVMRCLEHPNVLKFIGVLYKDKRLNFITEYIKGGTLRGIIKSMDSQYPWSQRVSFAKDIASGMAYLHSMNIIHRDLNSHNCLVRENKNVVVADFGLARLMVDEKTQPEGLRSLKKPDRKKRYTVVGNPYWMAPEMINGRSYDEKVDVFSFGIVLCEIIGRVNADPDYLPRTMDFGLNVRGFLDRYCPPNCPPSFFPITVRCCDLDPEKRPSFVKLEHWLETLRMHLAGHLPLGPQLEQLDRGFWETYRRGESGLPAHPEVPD
# MAPK13 (human), sequence (O15264 whole entry, looked up): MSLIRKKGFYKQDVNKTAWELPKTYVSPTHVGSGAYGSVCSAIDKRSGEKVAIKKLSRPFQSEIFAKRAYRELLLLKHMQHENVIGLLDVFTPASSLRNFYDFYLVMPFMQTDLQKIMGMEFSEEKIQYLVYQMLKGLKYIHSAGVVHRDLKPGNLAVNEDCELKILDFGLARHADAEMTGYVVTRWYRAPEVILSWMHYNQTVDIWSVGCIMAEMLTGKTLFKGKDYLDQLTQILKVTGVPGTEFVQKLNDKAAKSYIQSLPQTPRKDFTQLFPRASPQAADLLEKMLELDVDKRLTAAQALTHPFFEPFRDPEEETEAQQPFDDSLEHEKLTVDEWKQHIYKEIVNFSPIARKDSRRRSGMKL
structure (smiles),measurement,setting,value
CC(C)n1cnc2c(Nc3cccc(Cl)c3)nc(NCCO)nc21,residual activity,MAPK13 (human),99%
same,residual activity,PBK (human),101%
same,residual activity,AXL (human),91.3%
same,residual activity,DYRK4 (human),91.2%
same,residual activity,MAP2K2 (human),97.6%
same,residual activity,PAK7 (human),80.4%
same,residual activity,CSF1R (human),94.8%
same,residual activity,PIM3 (human),90.4%
same,residual activity,ADRBK2 (human),90.5%
same,residual activity,CDK1 CCNB1 (human),46.6%
same,residual activity,LRRK2 (human),72.8%
same,residual activity,YES1 (human),33.7%
same,residual activity,EPHB2 (human),89.8%
same,residual activity,EPHA4 (human),87.5%
same,residual activity,BMX (human),92.5%
same,residual activity,PHKG2 (human),93.2%
same,residual activity,MARK3 (human),92.3%
same,residual activity,GSG2 (human),94.7%
same,residual activity,NLK (human),102%
same,residual activity,RPS6KA5 KD2 (human),87%
same,residual activity,DAPK3 (human),102%
same,residual activity,BRSK1 (human),93.1%
same,residual activity,LYN (human),80.2% and 94.6%
same,residual activity,MAP2K1 (human),92.8%
same,residual activity,CDK5 CDK5R1 p25 (human),26.2%
same,residual activity,PRKD3 (human),88.4%
same,residual activity,RPS6KA3 KD1 KD2 (human),60.1%
same,residual activity,AKT3 (human),99.9%
same,residual activity,CAMKK1 (human),88.2%
same,residual activity,MYLK2 (human),96.3%
same,residual activity,INSR (human),97.3%
same,residual activity,DMPK (human),98.5%
same,residual activity,ULK2 (human),89%
same,residual activity,MAP3K9 (human),27.2%
same,residual activity,STK24 (human),87.7%
same,residual activity,EPHB1 (human),76.9%
same,residual activity,FLT3 (human),15.1%
same,residual activity,PRKD1 (human),99.2%
same,residual activity,ACVR1B (human),101%
same,residual activity,LIMK1 (human),105%
same,residual activity,LCK (human),84.9%
same,residual activity,MAPKAPK3 (human),91%
Cc1cc2ncc(-c3ccccc3)nc2cc1C,residual activity,MAPK13 (human),107%
same,residual activity,PBK (human),94.5%
same,residual activity,AXL (human),100%
same,residual activity,DYRK4 (human),90.3%
same,residual activity,MAP2K2 (human),97.6%
same,residual activity,PAK7 (human),96.9%
same,residual activity,CSF1R (human),82.1%
same,residual activity,PIM3 (human),103%
same,residual activity,ADRBK2 (human),87.4%
same,residual activity,CDK1 CCNB1 (human),108%
same,residual activity,LRRK2 (human),94.4%
same,residual activity,YES1 (human),102%
same,residual activity,EPHB2 (human),96.7%
same,residual activity,EPHA4 (human),95.4%
same,residual activity,BMX (human),90%
same,residual activity,PHKG2 (human),83.9%
same,residual activity,MARK3 (human),101%
same,residual activity,GSG2 (human),91.5%
same,residual activity,NLK (human),92.8%
same,residual activity,RPS6KA5 KD2 (human),96.4%
same,residual activity,DAPK3 (human),90.3%
same,residual activity,BRSK1 (human),95.1%
same,residual activity,LYN (human),100% and 98.2%
same,residual activity,MAP2K1 (human),98%
same,residual activity,CDK5 CDK5R1 p25 (human),96.6%
same,residual activity,PRKD3 (human),92.2%
same,residual activity,RPS6KA3 KD1 KD2 (human),94.2%
same,residual activity,AKT3 (human),91.8%
same,residual activity,CAMKK1 (human),98%
same,residual activity,MYLK2 (human),99.7%
same,residual activity,INSR (human),94%
same,residual activity,DMPK (human),102%
same,residual activity,ULK2 (human),108%
same,residual activity,MAP3K9 (human),92.6%
same,residual activity,STK24 (human),94.5%
same,residual activity,EPHB1 (human),91.1%
same,residual activity,FLT3 (human),53.6%
same,residual activity,PRKD1 (human),100%
same,residual activity,ACVR1B (human),97.7%
same,residual activity,LIMK1 (human),102%
same,residual activity,LCK (human),99.5%
same,residual activity,MAPKAPK3 (human),100%
